Results as given in article PMC6111440, “Cyclin-Dependent Kinase (CDK) Inhibitors: Structure–Activity Relationships and Insights into the CDK-2 Selectivity of 6-Substituted 2-Arylaminopurines” (Journal of Medicinal Chemistry, 2016).
Where two headings read alike, the source gives them in different places.

Assays:
CDK2/A [1] = biological target: T1, CDK2/A (Homo sapiens, UniProt P24941)
Description: (§1) Human CDK1/B was purchased from New England Biolabs or prepared as described,[46] CDK2/A2 was prepared as described,[46] CDK4/D was provided by AstraZeneca, and CDK7/H and CDK9/T were purchased from Upstate. IC50 values for CDK1/B, CDK2/A, and CDK4/D were determined as described.[23] IC50 values for CDK7/H and CDK9/H were determined according to the supplier’s instructions (Upstate).

Human CDK1/B [2] = biological target: T2, Human CDK1/B (Homo sapiens, UniProt P06493)
Description: as §1

CDK4/D = CDK4/D (Homo sapiens, UniProt P11802); assay: biochemical; details: for inhibition at 100 µM: read-out: CDK4/D % inhibition at 100 μM; for inhibition at 10 µM: read-out: CDK4 Inhibition at 10 μM (%)
Sequence of CDK4/D (P11802 whole entry): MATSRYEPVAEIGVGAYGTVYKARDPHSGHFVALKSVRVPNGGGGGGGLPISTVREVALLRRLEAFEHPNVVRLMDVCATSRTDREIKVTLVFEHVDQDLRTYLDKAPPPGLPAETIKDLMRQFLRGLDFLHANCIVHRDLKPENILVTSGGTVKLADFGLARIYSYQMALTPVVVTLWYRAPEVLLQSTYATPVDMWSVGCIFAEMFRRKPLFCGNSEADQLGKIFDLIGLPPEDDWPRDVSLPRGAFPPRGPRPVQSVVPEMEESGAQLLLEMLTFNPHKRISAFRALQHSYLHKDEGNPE
Sequence of CDK4/D (P24385 whole entry partner): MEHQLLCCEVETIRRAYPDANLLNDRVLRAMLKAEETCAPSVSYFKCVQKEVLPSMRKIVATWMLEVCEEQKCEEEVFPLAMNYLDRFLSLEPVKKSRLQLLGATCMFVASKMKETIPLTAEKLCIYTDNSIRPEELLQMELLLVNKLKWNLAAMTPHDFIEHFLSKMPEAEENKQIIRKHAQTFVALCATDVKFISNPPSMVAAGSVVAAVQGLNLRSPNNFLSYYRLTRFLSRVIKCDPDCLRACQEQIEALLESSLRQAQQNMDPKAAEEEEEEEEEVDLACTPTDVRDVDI
Description: as §1

CDK9/T [3] = biological target: T3, CDK9/T (Homo sapiens, UniProt P50750)
T3 sequence (P50750 whole entry): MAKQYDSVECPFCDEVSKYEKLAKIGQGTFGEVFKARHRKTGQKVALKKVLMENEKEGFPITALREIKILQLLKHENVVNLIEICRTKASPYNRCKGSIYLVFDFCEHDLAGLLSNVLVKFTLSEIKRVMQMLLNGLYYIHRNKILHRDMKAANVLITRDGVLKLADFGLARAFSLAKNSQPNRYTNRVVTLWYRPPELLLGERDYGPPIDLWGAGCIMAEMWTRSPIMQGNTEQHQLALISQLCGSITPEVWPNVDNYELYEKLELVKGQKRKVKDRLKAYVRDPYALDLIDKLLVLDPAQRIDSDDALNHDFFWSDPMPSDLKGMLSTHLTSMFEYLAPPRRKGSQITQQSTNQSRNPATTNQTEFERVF
T3 sequence (O60563 whole entry partner): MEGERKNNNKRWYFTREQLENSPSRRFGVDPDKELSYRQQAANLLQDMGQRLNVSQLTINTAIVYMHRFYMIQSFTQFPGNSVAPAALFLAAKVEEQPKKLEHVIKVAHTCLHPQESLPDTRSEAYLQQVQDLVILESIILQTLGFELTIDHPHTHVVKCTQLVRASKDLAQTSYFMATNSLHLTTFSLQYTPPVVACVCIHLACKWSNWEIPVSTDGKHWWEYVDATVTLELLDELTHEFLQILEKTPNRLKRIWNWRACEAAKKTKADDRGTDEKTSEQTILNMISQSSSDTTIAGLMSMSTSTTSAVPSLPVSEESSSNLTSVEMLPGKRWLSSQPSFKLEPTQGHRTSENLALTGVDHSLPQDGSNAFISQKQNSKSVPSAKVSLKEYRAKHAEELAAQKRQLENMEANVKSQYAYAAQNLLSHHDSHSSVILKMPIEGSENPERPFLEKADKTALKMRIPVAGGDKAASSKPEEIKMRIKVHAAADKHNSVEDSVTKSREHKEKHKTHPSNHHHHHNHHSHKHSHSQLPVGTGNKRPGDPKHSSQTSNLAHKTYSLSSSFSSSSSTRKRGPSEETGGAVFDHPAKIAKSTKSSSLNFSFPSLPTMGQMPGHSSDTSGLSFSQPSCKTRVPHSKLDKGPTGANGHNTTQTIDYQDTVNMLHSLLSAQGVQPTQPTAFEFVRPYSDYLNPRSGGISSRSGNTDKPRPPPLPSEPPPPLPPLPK
Description: as §1

CDK7/H [4] = biological target: T4, CDK7/H (Homo sapiens, UniProt P50613)
T4 sequence (P50613 whole entry): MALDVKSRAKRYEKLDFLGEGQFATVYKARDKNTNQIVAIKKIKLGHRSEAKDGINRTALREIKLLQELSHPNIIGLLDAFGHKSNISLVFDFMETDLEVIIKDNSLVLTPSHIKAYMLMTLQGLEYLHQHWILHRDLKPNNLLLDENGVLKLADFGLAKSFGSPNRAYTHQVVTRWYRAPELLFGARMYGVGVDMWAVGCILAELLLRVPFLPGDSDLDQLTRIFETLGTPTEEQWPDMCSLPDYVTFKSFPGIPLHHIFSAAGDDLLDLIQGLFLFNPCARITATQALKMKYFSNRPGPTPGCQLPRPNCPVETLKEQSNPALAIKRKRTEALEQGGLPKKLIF
T4 sequence (P51946 whole entry partner): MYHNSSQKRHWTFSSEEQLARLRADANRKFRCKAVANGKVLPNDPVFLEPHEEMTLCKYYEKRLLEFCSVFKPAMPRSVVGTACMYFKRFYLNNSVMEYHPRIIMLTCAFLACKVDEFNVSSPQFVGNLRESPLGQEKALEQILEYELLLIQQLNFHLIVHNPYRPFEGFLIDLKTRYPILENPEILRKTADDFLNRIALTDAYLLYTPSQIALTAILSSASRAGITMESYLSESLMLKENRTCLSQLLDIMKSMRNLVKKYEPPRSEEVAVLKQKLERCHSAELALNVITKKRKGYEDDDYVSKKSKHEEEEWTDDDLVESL
T4 sequence (P51948 whole entry partner): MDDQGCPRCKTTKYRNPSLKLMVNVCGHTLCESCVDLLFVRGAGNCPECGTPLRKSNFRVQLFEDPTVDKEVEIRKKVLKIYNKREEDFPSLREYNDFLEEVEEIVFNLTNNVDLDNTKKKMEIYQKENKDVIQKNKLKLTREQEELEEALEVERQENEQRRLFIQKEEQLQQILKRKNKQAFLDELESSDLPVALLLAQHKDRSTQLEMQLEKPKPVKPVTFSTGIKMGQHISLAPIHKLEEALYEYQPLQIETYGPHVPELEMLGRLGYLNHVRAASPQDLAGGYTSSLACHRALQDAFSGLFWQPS
Description: as §1

CDK7/H [5] = biological target: T4, CDK7/H; assay: biochemical; details: for inhibition at 10 µM: read-out: CDK7 Inhibition at 10 μM (%)
Description: as §1

[6] = system: Rb-proficient human tumor cell lines (A375, Calu-6, MDA-MB-231, SJSA1, SKUT-1B); assay: 5-day growth inhibition SRB assay; details: for GI50: Homo sapiens, 120 h
Description: Dose–response curves and GI50 bar charts represent the mean ± SEM from three or four independent experiments.
The ability of selected compounds to inhibit cell growth was assessed in a panel of human cancer cell lines using an SRB assay.[45] […] At least three independent experiments were performed. Growth inhibitory GI50 values were calculated using GraphPad Prism software (GraphPad Software, Inc., San Diego, CA).

CDK2/A [7] = biological target: T1, CDK2/A; assay: biochemical
Description: as §1

CDK5 [8] = biological target: T5, CDK5 (Homo sapiens, UniProt Q00535); details: read-out: CDK5 Inhibitory Activity IC50; Table 3
T5 sequence (Q00535 whole entry, species assumed): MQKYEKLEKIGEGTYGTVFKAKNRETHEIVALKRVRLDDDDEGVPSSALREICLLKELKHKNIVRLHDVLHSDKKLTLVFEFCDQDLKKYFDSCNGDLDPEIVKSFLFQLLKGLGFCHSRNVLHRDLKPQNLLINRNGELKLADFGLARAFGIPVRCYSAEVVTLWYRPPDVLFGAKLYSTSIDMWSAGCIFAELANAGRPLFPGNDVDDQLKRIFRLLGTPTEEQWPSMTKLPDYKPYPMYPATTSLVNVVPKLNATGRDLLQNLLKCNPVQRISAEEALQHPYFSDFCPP
T5 sequence (Q15078 99-307 partner limits assumed, species assumed): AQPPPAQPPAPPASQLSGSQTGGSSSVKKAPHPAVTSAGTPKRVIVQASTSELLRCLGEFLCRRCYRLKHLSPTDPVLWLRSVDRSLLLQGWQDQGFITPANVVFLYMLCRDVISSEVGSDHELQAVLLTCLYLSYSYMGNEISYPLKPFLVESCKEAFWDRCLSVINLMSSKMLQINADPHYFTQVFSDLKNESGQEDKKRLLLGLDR

CDK5 [9] = biological target: T5, CDK5; assay: biochemical; details: read-out: CDK5 Inhibition at 10 μM (%)
Human CDK1/B [10] = biological target: T2, Human CDK1/B; assay: biochemical; details: read-out: CDK1 Inhibition at 10 μM (%)
Description: as §1

CDK9/T [11] = biological target: T3, CDK9/T; assay: biochemical; details: read-out: CDK9 Inhibition at 10 μM (%)
Description: as §1

[12] = read-out: CDK2 Inhibition IC50, Table 1, ATP 12.5 μM
[13] = read-out: CDK1/B IC50, Table 2, ATP 12.5 μM
[14] = read-out: CDK9/T IC50, Table 2, ATP 100 μM
[15] = read-out: CDK7/H IC50, Table 2, ATP 100 μM
[16] = read-out: CDK2 Inhibitory Activity IC50, Table 3
[17] = read-out: CDK2 Inhibition at 10 μM (%)
[18] = read-out: CDK1 Inhibitory Activity IC50, Table 3
[19] = read-out: CDK9 Inhibitory Activity IC50, Table 3
[20] = read-out: CDK7 Inhibitory Activity IC50, Table 3

T2 sequence (P06493 whole entry): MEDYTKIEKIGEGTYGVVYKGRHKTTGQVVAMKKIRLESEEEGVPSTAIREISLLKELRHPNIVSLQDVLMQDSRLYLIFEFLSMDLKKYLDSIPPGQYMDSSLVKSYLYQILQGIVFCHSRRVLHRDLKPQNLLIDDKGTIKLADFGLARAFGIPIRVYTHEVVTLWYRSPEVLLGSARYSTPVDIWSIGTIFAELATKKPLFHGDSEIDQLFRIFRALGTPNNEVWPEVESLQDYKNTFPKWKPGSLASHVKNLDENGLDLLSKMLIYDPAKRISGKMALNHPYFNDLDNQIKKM
T2 sequence (P14635 whole entry partner): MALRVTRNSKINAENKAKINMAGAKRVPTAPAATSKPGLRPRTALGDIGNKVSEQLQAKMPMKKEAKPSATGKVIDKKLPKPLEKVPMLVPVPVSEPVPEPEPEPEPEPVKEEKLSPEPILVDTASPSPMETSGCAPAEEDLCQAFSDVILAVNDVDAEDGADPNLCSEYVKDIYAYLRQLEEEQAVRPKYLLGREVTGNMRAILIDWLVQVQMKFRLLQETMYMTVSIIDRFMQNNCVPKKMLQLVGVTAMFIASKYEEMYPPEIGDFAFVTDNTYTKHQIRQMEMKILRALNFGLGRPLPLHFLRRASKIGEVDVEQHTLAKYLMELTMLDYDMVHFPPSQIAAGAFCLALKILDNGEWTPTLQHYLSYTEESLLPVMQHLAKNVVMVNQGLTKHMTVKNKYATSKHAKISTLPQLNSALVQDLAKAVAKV

CCc1nc(Nc2ccc(S(N)(=O)=O)cc2)nc2[nH]cnc12 [Compound 52, 4-(6-Ethyl-9H-purin-2-ylamino)benzenesulfonamide]
fold reduction of CDK2-inhibitory activity compared with 30 (CDK2/A [1]; compared with 6-ethoxypurine 30): ~10 fold
IC50 (CDK2/A [1]; [12]): 220 ± 3 nM

NS(=O)(=O)c1ccc(Nc2ncc3nc[nH]c3n2)cc1 [Compound 13, 4-(9H-Purin-2-ylamino)benzenesulfonamide]
fold less active/potent than 3 against CDK2 (CDK2/A [1]; compared with 3): ~300 fold
IC50 (CDK2/A [1]; [12]): 1500 ± 100 nM
IC50 (Human CDK1/B [2]; [13]): 15800 ± 1200 nM
inhibition at 100 µM (CDK4/D): 12%
IC50 (CDK9/T [3]; [14]): 38000 ± 11000 nM
IC50 (CDK7/H [4]; [15]): 75 ± 3 µM

NS(=O)(=O)c1ccc(Nc2nc(-c3ccccc3)c3nc[nH]c3n2)cc1 [Compound 70, 4-(6-Phenyl-9H-purin-2-ylamino)benzenesulfonamide]
IC50 (CDK2/A [1]; [12]): 24 ± 2 nM
IC50 (Human CDK1/B [2]; [13]): 730 ± 3 nM
IC50 (CDK9/T [3]; [14]): 570 ± 40 nM
IC50 (CDK7/H [4]; [15]): 6.8 ± 0.4 µM

CCC(C)Oc1nc(Nc2ccc(S(N)(=O)=O)cc2)nc2[nH]cnc12 (racemic) [Compound 34]
IC50 (CDK2/A [1]; read-out: CDK2/A IC50, Table 2, ATP 12.5 μM): 1.2 ± 0.5 nM
IC50 (CDK2/A [1]; [12]): 1 ± 0.5 nM
IC50 (Human CDK1/B [2]; [13]): 97 ± 40 nM
IC50 (CDK9/T [3]; [14]): 570 ± 50 nM
IC50 (CDK7/H [4]; [15]): 2.8 ± 0.1 µM

NS(=O)(=O)c1ccc(Nc2nc(-c3cccc4c3oc3ccccc34)c3nc[nH]c3n2)cc1 [Compound 75, 4-(6-(4-Dibenzofuryl)-9H-purin-2-ylamino)benzenesulfonamide]
IC50 (CDK2/A [1]; [12]): 1400 ± 200 nM

NS(=O)(=O)c1ccc(Nc2nc(-c3cccc(-c4ccccc4)c3)c3nc[nH]c3n2)cc1 [Compound 73, 4-((6-([1,1′-Biphenyl]-3-yl)-9H-purin-2-yl)amino)benzenesulfonamide]
inhibition at 100 µM (CDK7/H [5]; read-out: CDK7/H % inhibition at 100 μM): 28%
selectivity for CDK2 over CDK1 (CDK2/A [1]; ratio of CDK1 and CDK2 IC50): ~2000 fold
IC50 (CDK2/A [1]; [12]): 44 ± 12 nM
IC50 (Human CDK1/B [2]; [13]): 86000 ± 4000 nM
inhibition at 100 µM (CDK4/D): 26%
effect on the growth of cells ([6]; maximal concentration tested 30 μM, 5-day growth assay, GI50 could not be determined): no or limited effects
IC50 (CDK9/T [3]; [14]): 25000 ± 8000 nM

Nc1cc(OCC2CCCCC2)c2nc[nH]c2n1 [Compound 80, 7-(Cyclohexylmethoxy)-3H-imidazo[4,5-b]pyridin-5-amine]
IC50 (CDK2/A [1]; [16]): 28400 ± 800 nM

NS(=O)(=O)c1ccc(Nc2cc(OCC3CCCCC3)n3ccnc3n2)cc1 [Compound 102, 5-Cyclohexylmethoxy-7-(4′-sulfamoylanilino)imidazo[1,2-a]pyrimidine]
inhibition at 10 µM (CDK2/A [7]; [17]): 36%

c1ccc(Nc2cc(OCC3CCCCC3)n3ccnc3n2)cc1 [Compound 101, 5-Cyclohexylmethoxy-7-anilinoimidazo[1,2-a]pyrimidine]
inhibition at 10 µM (CDK2/A [7]; [17]): 10%

NS(=O)(=O)c1ccc(Nc2nc(-c3cccc4c3Sc3ccccc3S4)c3nc[nH]c3n2)cc1 [Compound 76]
IC50 (CDK2/A [1]; [12]): 6700 ± 500 nM

COc1ccc(-c2nc(Nc3ccc(S(N)(=O)=O)cc3)nc3[nH]cnc23)cc1 [Compound 72, 4-(6-(4-Methoxyphenyl)-9H-purin-2-ylamino)benzenesulfonamide]
IC50 (CDK2/A [1]; [12]): 52 ± 4 nM

NS(=O)(=O)c1ccc(Nc2nc(-c3ccc4c(c3)OCO4)c3nc[nH]c3n2)cc1 [Compound 74, 4-(6-(Benzo[d][1,3]dioxol-5-yl)-9H-purin-2-ylamino)benzenesulfonamide]
fold less potent than 70 (CDK2) (CDK2/A [1]; compared with 70): ~20 fold
IC50 (CDK2/A [1]; [12]): 580 ± 20 nM

Nc1nc2ncnc-2c[nH]1 [Compound 8, 2-Aminopurine, reference compound]
inhibition at 100 µM (CDK2/A [7]; read-out: CDK2 Inhibition (%) at 100 μM): 4%

c1ccc(Nc2ncc3nc[nH]c3n2)cc1 [Compound 12, Phenyl-(9H-purin-2-yl)amine]
IC50 (CDK2/A [1]; [12]): 61000 ± 100 nM

C(#Cc1nc(Nc2ccccc2)nc2[nH]cnc12)c1ccccc1 [Compound 49, N-Phenyl-6-(phenylethynyl)-9H-purin-2-amine]
IC50 (CDK2/A [1]; [12]): 8900 ± 700 nM

NS(=O)(=O)c1ccc(Nc2nc(OCC3CCCCC3)c3cc[nH]c3n2)cc1 [Compound 98, 4-((4-(Cyclohexylmethoxy)-7H-pyrrolo[2,3-d]pyrimidin-2-yl)amino)benzenesulfonamide]
IC50 (CDK2/A [1]; [16]): 26 ± 1 nM
IC50 (Human CDK1/B [2]; [18]): 2700 ± 200 nM
IC50 (CDK5 [8]): 4.4 ± 0.6 µM
GI50 [6]: 1 to 22 µM
IC50 (CDK9/T [3]; [19]): 1000 ± 200 nM
IC50 (CDK7/H [4]; [20]): 4.1 ± 0.2 µM

Nc1nc(OCC2CCCCC2)c2cc[nH]c2n1 [Compound 93, 4-(Cyclohexylmethoxy)-7H-pyrrolo[2,3-d]pyrimidin-2-amine]
inhibition at 10 µM (CDK7/H [5]): 5.1%
inhibition at 10 µM (CDK4/D): 5.6%
inhibition at 10 µM (CDK5 [9]): 12%
inhibition at 10 µM (Human CDK1/B [10]): 11%
inhibition at 10 µM (CDK9/T [11]): 0%
inhibition at 10 µM (CDK2/A [7]; read-out: CDK2 Inhibition (%) at 10 uM): 41 ± 10%
inhibition at 100 µM (CDK2/A [7]; read-out: CDK2 Inhibition (%), value determined at 100 μM): 41%

Nc1nc(OCC2CCCCC2)c2nn[nH]c2n1 [Compound 86, 7-(Cyclohexylmethoxy)-3H-[1,2,3]triazolo[4,5-d]pyrimidin-5-amine]
inhibition at 10 µM (CDK7/H [5]): 13%
IC50 (CDK2/A [1]; [16]): 18000 ± 1000 nM
inhibition at 10 µM (CDK4/D): 6.2%
inhibition at 10 µM (CDK5 [9]): 13%
inhibition at 10 µM (Human CDK1/B [10]): 21%
inhibition at 10 µM (CDK9/T [11]): 16%

CC#Cc1nc(Nc2ccccc2)nc2[nH]cnc12 [Compound 48, N-Phenyl-6-(prop-1-yn-1-yl)-9H-purin-2-amine]
IC50 (CDK2/A [1]; [12]): 6400 ± 400 nM

NS(=O)(=O)c1ccc(Nc2nc(C3CC3)c3nc[nH]c3n2)cc1 [Compound 55, 4-(6-Cyclopropyl-9H-purin-2-ylamino)benzenesulfonamide]
IC50 (CDK2/A [1]; [12]): 19 ± 1 nM

CC(C)[Si](C#Cc1nc(Nc2ccc(S(N)(=O)=O)cc2)nc2[nH]cnc12)(C(C)C)C(C)C [Compound 40, 4-(6-((Triisopropylsilyl)ethynyl)-9H-purin-2-ylamino)benzenesulfonamide]
IC50 (CDK2/A [1]; [12]): 17 ± 1 nM

COc1cccc(-c2nc(Nc3ccc(S(N)(=O)=O)cc3)nc3[nH]cnc23)c1 [Compound 71, 4-(6-(3-Methoxyphenyl)-9H-purin-2-ylamino)benzenesulfonamide]
IC50 (CDK2/A [1]; [12]): 39 ± 13 nM

NS(=O)(=O)c1ccc(Nc2nc(OCC3CCCCC3)c3nn[nH]c3n2)cc1 [Compound 90, 4-((7-(Cyclohexylmethoxy)-3H-[1,2,3]triazolo[4,5-d]pyrimidin-5-yl)amino) benzenesulfonamide]
IC50 (CDK2/A [1]; [16]): 2 ± 0.1 nM
IC50 (Human CDK1/B [2]; [18]): 750 ± 60 nM
IC50 (CDK5 [8]): 3.3 ± 0.2 µM
IC50 (CDK9/T [3]; [19]): 750 ± 30 nM
IC50 (CDK7/H [4]; [20]): 6.8 ± 0.7 µM

NS(=O)(=O)c1ccc(Nc2nc(OCC3CCCCC3)c3cn[nH]c3n2)cc1 [Compound 91, 4-((4-(Cyclohexylmethoxy)-1H-pyrazolo[3,4-d]pyrimidin-6-yl)amino)benzenesulfonamide]
IC50 (CDK5 [8]): 5.9 ± 0.1 µM
GI50 [6]: 1 to 22 µM
IC50 (CDK9/T [3]; [19]): 4600 ± 200 nM
IC50 (CDK7/H [4]; [20]): 7 ± 0.3 µM

NS(=O)(=O)c1ccc(Nc2cc(OCC3CCCCC3)c3nc[nH]c3n2)cc1 [Compound 83, 4-((7-(Cyclohexylmethoxy)-3H-imidazo[4,5-b]pyridin-5-yl)amino) benzenesulfonamide]
inhibition at 10 µM (CDK7/H [5]): 37%
IC50 (CDK2/A [1]; [16]): 290 ± 10 nM
IC50 (Human CDK1/B [2]; [18]): 11000 ± 2000 nM
inhibition at 10 µM (CDK4/D): 23 ± 1%
inhibition at 10 µM (CDK5 [9]): 37%
inhibition at 10 µM (CDK9/T [11]): 42%

Nc1nc(OCC2CCCCC2)c2cn[nH]c2n1 [Compound 87, 4-(Cyclohexylmethoxy)-1H-pyrazolo[3,4-d]pyrimidin-6-amine]
inhibition at 10 µM (CDK7/H [5]): 16%
IC50 (CDK2/A [1]; [16]): 16000 ± 4000 nM
inhibition at 10 µM (CDK4/D): 0%
inhibition at 10 µM (CDK5 [9]): 14%
inhibition at 10 µM (Human CDK1/B [10]): 32%
inhibition at 10 µM (CDK9/T [11]): 16%
